Test results taken from EP4745124A1, “NAPHTHALIMIDE-BASED CORONAVIRUS PAPAIN-LIKE PROTEASE INHIBITOR” (Guangzhou National Laboratory, priority 2023, dated 2025).

Target: T1, SARS-CoV-2 PL^Pro (Severe acute respiratory syndrome coronavirus 2, UniProt P0DTD1)
T1 construct: SARS-CoV-2 PL^Pro catalytic domain (746-1060); made in house
Assay: biochemical
Conditions: not given

Compared with Cc1ccc(N2C3CCC2CNC3)cc1C(=O)NC1(c2ccc3c4c(cccc24)C(=O)N3C)CC1 [Compound P6, 5-(3,8-diazabicyclo[3.2.1]octan-8-yl)-2-methyl-N-(1-(1-methyl-2-oxo-1,2-dihydrobenzo[cd]indol-6-yl)cyclopropyl)ben zamide], Cc1ccc(N2C3CCC2CN(C)C3)cc1C(=O)NC1(c2ccc3c4c(cccc24)C(=O)N3C)CC1 [Compound P8, 2-Methyl-N-(1-(1-methyl-2-oxo-1,2-dihydrobenzo[cd]indol-6-yl)cyclopropyl)-3-methyl-3,8-diazabicyclo[3.2.1]octan-8-yl benzamide] is higher in IC50: less than 40 nM for the first, 100 to 1000 nM for the second.

First: Cc1ccc(N2CCNC3(CC3)C2)cc1C(=O)NC1(c2ccc3c4c(cccc24)C(=O)N3C)CC1 [Compound P12, 2-Methyl-N-(1-(1-methyl-2-oxo-1,2-dihydrobenzo[cd]indol-6-yl)cyclopropyl)-5-(4,7-diazaspiro[2,5]octan-7-yl) benzamide]
Second: Cc1ccc(N2CC3CC(C2)N3C)cc1C(=O)NC1(c2ccc3c4c(cccc24)C(=O)N3C(C)C)CC1 [Compound P21, N-(1-(1-isopropyl-2-oxo-1,2-dihydrobenzo[cd]indol-6-yl)cyclopropyl)-2-methyl-5-(6-methyl-3,6-diazabicyclo[3.1.1]heptan-3-yl)benzamide]
The IC50 of the first is higher: 40 to 100 nM for the first, less than 40 nM for the second. The second is the more potent here.

Same assay, conditions: SARS-CoV-2 PLPro catalytic domain (746-1060), 10 minutes pre-incubation; read-out: PLpro IC50

First: Cc1ccc(N2CCN(C)CC2)cc1C(=O)NC1(c2ccc3c4c(cccc24)C(=O)N3)CC1 [Compound P2, 2-Methyl-5-(4-methylpiperazin-1-yl)-N-(1-(2-oxo-1,2-dihydrobenzo[cd]indol-6-yl)cyclopropyl)benzamide]
Second: CCN1C(=O)c2cccc3c(C4(NC(=O)c5cc(N6CCN(C)CC6)ccc5C)CC4)ccc1c23 [Compound P27, N-(1-(1-ethyl-2-oxo-1,2-dihydrobenzo[cd]indol-6-yl)cyclopropyl)-2-methyl-5-(4-methylpiperazin-1-yl)benzamide]
The IC50 of the first is higher: 40 to 100 nM for the first, less than 40 nM for the second.

Cc1ccc(C2CCNCC2)cc1C(=O)NC1(c2ccc3c4c(cccc24)C(=O)N3C)CC1 [Compound P4, 2-Methyl-N-(1-(1-methyl-2-oxo-1,2-dihydrobenzo[cd]indol-6-yl)cyclopropyl)-5-(piperidin-4-yl)benzamide] and Cc1ccc(C2CCN(C)CC2)cc1C(=O)NC1(c2ccc3c4c(cccc24)C(=O)N3C)CC1 [Compound P22, 2-methyl-N-(1-(1-methyl-2-oxo-1,2-dihydrobenzo[cd]indol-6-yl)cyclopropyl)-5-(1-methylpiperidin-4-yl)benzamide] fall in the same range of IC50: 40 to 100 nM for the first, 40 to 100 nM for the second.

Cc1ccc(N2CC3CNCC3C2)cc1C(=O)NC1(c2ccc3c4c(cccc24)C(=O)N3C)CC1 (centres unmarked) [Compound P9, 5-(hexahydropyrrolo[3,4-c]pyrrol-2(1H)-yl)-2-methyl-N-(1-(1-methyl-2-oxo-1,2-dihydrobenzo[cd]indol-6-yl)cyclopropyl)benzamide] and Cc1ccc(N2CC3CCCN(C)C3C2)cc1C(=O)NC1(c2ccc3c4c(cccc24)C(=O)N3C)CC1 (centres unmarked) [Compound P39, 2-Methyl-N-(1-(1-methyl-2-oxo-1,2-dihydrobenzo[cd]indol-6-yl)cyclopropyl)-5-(1-methyloctahydro-6H-pyrrolo[3,4-b]pyridin-6-yl)benzamide] cannot be ordered by IC50: less than 40 nM for the first, less than 40 nM for the second.

Compared with Cc1ccc(N2CCNCC2C)cc1C(=O)NC1(c2ccc3c4c(cccc24)C(=O)N3C)CC1 (centres unmarked) [Compound P10, 2-Methyl-N-(1-(1-methyl-2-oxo-1,2-dihydrobenzo[cd]indol-6-yl)cyclopropyl)-5-(2-methylpiperazin-1-yl)benzamide], CCN1CCN(c2ccc(C)c(C(=O)NC3(c4ccc5c6c(cccc46)C(=O)N5C)CC3)c2)C[C@@H]1C [Compound P14, (S)-5-(4-ethyl-3-methylpiperazin-1-yl)-2-methyl-N-(1-(1-methyl-2-oxo-1,2-dihydrobenzo[cd]indol-6-yl)cyclopropyl)be nzamide] is lower in IC50: 100 to 1000 nM for the first, less than 40 nM for the second.

First: Cc1ccc(N2CCC(N(C)C)CC2)cc1C(=O)NC1(c2ccc3c4c(cccc24)C(=O)N3C)CC1 [Compound P13, 5-(4-(Dimethylamino)piperidin-1-yl)-2-methyl-N-(1-(1-methyl-2-oxo-1,2-dihydrobenzo[cd]indol-6-yl)cyclopropyl)ben zamide]
Second: Cc1ccc(N2CC(N3CCC(F)CC3)C2)cc1C(=O)NC1(c2ccc3c4c(cccc24)C(=O)N3C)CC1 [Compound P26, 5-(3-(4-fluoropiperidin-1-yl)azetidin-1-yl)-2-methyl-N-(1-(1-methyl-2-oxo-1,2-dihydrobenzo[cd]indol-6-yl)cyclopropyl)benzamide]
The IC50 of the first is higher: 100 to 1000 nM for the first, less than 40 nM for the second.

First: Cc1ccc(-n2ccc(N(C)C)c2)cc1C(=O)NC1(c2ccc3c4c(cccc24)C(=O)N3C)CC1 [Compound P15, 5-(3-(dimethylamino)pyrrol-1-yl)-2-methyl-N-(1-(1-methyl-2-oxo-1,2-dihydrobenzo[cd]indol-6-yl)cyclopropyl)benzamide]
Second: Cc1ccc(N2C[C@H]3CN(C)C[C@H]32)cc1C(=O)NC1(c2ccc3c4c(cccc24)C(=O)N3C)CC1 [Compound P20, 2-Methyl-N-(1-(1-methyl-2-oxo-1,2-dihydrobenzo[cd]indol-6-yl)cyclopropyl)-5-((1R,5S)-3-methyl-3,6-diazabicyclo[3. 2.0]heptan-6-yl)benzamide]
The IC50 of the first is lower: less than 40 nM for the first, 100 to 1000 nM for the second. The first is the more potent here.

First: Cc1ccc(N2CC(N3C=CC(F)(F)C3)C2)cc1C(=O)NC1(c2ccc3c4c(cccc24)C(=O)N3C)CC1 [Compound P18, 5-(3-(3,3-difluoropyrrol-1-yl)azetidin-1-yl)-2-methyl-N-(1-(1-methyl-2-oxo-1,2-dihydrobenzo[cd]indol-6-yl)cyclopropyl)benzamide]
Second: Cc1ccc(N2CC(N3CCC(F)(F)CC3)C2)cc1C(=O)NC1(c2ccc3c4c(cccc24)C(=O)N3C)CC1 [Compound P31, 5-(3-(4,4-difluoropiperidin-1-yl)azetidin-1-yl)-2-methyl-N-(1-(1-methyl-2-oxo-1,2-dihydrobenzo[cd]indol-6-yl)cyclopropyl)benzamide]
The IC50 of the first is higher: 100 to 1000 nM for the first, 40 to 100 nM for the second. The second is the more potent here.

Compared with Cc1ccc(N2CC(N3CCN(C)CC3)C2)cc1C(=O)NC1(c2ccc3c4c(cccc24)C(=O)N3C)CC1 [Compound P23, 2-Methyl-N-(1-(1-methyl-2-oxo-1,2-dihydrobenzo[cd]indol-6-yl)cyclopropyl)-5-(3-(4-methylpiperazin-1-yl)azetidin-1-yl)benzamide], Cc1ccc(N2CC(N3CCCCC3)C2)cc1C(=O)NC1(c2ccc3c4c(cccc24)C(=O)N3C)CC1 [Compound P24, 2-Methyl-N-(1-(1-methyl-2-oxo-1,2-dihydrobenzo[cd]indol-6-yl)cyclopropyl)-5-(3-(piperidin-1-yl)azetidin-1-yl)benzamide] is lower in IC50: 100 to 1000 nM for the first, less than 40 nM for the second.

Cc1ccc(N2CCN3CCC[C@@H]3C2)cc1C(=O)NC1(c2ccc3c4c(cccc24)C(=O)N3C)CC1 [Compound P25, (R)-5-(hexahydropyrrolo[1,2-a]pyrazin-2(1H)-yl)-2-methyl-N-(1-(1-methyl-2-oxo-1,2-dihydrobenzo[cd]indol-6-yl)cyclopropyl)benzamide] and Cc1ccc(N2CC(N3CCC(O)CC3)C2)cc1C(=O)NC1(c2ccc3c4c(cccc24)C(=O)N3C)CC1 [Compound P32, 5-(3-(4-hydroxypiperidin-1-yl)azetidin-1-yl)-2-methyl-N-(1-(1-methyl-2-oxo-1,2-dihydrobenzo[cd]indol-6-yl)cyclopropyl)benzamide] cannot be ordered by IC50: less than 40 nM for the first, less than 40 nM for the second.

CCN1C(=O)c2cccc3c(C4(NC(=O)c5cc(N6CC(N7CCC(C)(O)CC7)C6)ccc5C)CC4)ccc1c23 [Compound P28, N-(1-(1-Ethyl-2-oxo-1,2-dihydrobenzo[cd]indol-6-yl)cyclopropyl)-5-(3-(4-hydroxy-4-methylpiperidin-1-yl)azetidin-1-yl)-2-methyl-benzamide] and Cc1ccc(N2CC(N3CCC(F)C3)C2)cc1C(=O)NC1(c2ccc3c4c(cccc24)C(=O)N3C)CC1 (centres unmarked) [Compound P30, 5-(3-(3-fluoropyrrolidin-1-yl)azetidin-1-yl)-2-methyl-N-(1-(1-methyl-2-oxo-1,2-dihydrobenzo[cd]indol-6-yl)cyclopropyl)benzamide] cannot be ordered by IC50: less than 40 nM for the first, less than 40 nM for the second.

First: Cc1ccc(N2CC(N3CCCCC3C)C2)cc1C(=O)NC1(c2ccc3c4c(cccc24)C(=O)N3C)CC1 (centres unmarked) [Compound P34, 2-Methyl-N-(1-(1-methyl-2-oxo-1,2-dihydrobenzo[cd]indol-6-yl)cyclopropyl)-5-(3-(2-methylpiperidin-1-yl)azetidin-1-yl)benzamide]
Second: Cc1ccc(N2CCC(CN3CCOCC3)CC2)cc1C(=O)NC1(c2ccc3c4c(cccc24)C(=O)N3C)CC1 [Compound P38, 2-Methyl-N-(1-(1-methyl-2-oxo-1,2-dihydrobenzo[cd]indol-6-yl)cyclopropyl)-5-(4-(morpholinomethyl)piperidin-1-yl)b enzamide]
The IC50 of the first is lower: less than 40 nM for the first, 100 to 1000 nM for the second.

Same assay, conditions: read-out: PLpro IC50

Cc1ccc(N2CC3(CCN(C)C3)C2)cc1C(=O)NC1(c2ccc3c4c(cccc24)C(=O)N3C)CC1 [Compound P19] and Cc1ccc(N2CC(N3CCOC(C)(C)C3)C2)cc1C(=O)NC1(c2ccc3c4c(cccc24)C(=O)N3C)CC1 [Compound P33, 5-(3-(2,2-dimethylmorpholinyl)azetidin-1-yl)-2-methyl-N-(1-(1-methyl-2-oxo-1,2-dihydrobenzo[cd]indol-6-yl)cyclopropyl)benzamide] fall in the same range of IC50: 100 to 1000 nM for the first, 100 to 1000 nM for the second.

CCN1C(=O)c2cccc3c(C4(NC(=O)c5cc(N6CC7CC(C6)N7)ccc5C)CC4)ccc1c23 [Compound P29] and Cc1ccc(N2CC[C@H](N(C)C(C)C)C2)cc1C(=O)NC1(c2ccc3c4c(cccc24)C(=O)N3C)CC1 [Compound P36] cannot be ordered by IC50: less than 40 nM for the first, less than 40 nM for the second.

Compared with Cc1ccc(N2CC(N3CCS(=O)(=O)CC3)C2)cc1C(=O)NC1(c2ccc3c4c(cccc24)C(=O)N3C)CC1 [Compound P35, 5-(3-(1,1-dioxothiomorpholin)azetidin-1-yl)-2-methyl-N-(1-(1-methyl-2-oxo-1,2-dihydrobenzo[cd]indol-6-yl)cyclopropyl)benzamide], Cc1ccc(N2CCC(N3CCCC3)C2)cc1C(=O)NC1(c2ccc3c4c(cccc24)C(=O)N3C)CC1 (centres unmarked) [Compound P37, 5-([1,3'-dipyrrolidin]-1'-yl)-2-methyl-N-(1-(1-methyl-2-oxo-1,2-dihydrobenzo[cd]indol-6-yl)cyclopropyl)benzamide] is lower in IC50: 100 to 1000 nM for the first, 40 to 100 nM for the second. The second is the more potent here.
